Biological target: T1, human GPR119 (Homo sapiens, UniProt Q8TDV5)
T1 construct: expressed in transfected cells; host or cells: HEK293 (transient transfection, Lipofectamine 2000)
T1 sequence (Q8TDV5 1-335): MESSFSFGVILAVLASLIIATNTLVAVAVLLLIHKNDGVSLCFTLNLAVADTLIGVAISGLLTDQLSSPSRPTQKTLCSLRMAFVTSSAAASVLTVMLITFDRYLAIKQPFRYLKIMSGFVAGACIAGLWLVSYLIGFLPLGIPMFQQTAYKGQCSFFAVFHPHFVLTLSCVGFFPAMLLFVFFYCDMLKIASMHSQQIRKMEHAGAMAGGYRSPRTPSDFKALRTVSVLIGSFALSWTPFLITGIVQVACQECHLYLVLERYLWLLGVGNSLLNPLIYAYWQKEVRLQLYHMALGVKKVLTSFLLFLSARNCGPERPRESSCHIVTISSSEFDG
Test: In vitro cyclic AMP assay (Cisbio HTRF) in HEK293 cells transfected with human GPR119
Assay type: cell-based
Details: cAMP; for activation at 10 µM: 1 h, % Induction @ 10 μM; for EC50: Emax varies between 65 to 80%
Procedure: A. In Vitro Cyclic AMP Assay:
cAMP measurements were done using a Cisbio dynamic 2 HTRF kit (Cisbio, Bedford, Mass.) according to the manufacturer's protocol. Briefly, HEK293 cells (0.2×10^6/well) were plated in a 24 well plate and incubated overnight at 37° C. Cells were transfected with either empty vector DNA or human GPR119 expression plasmid DNA using Lipofectamine 2000 (Invitrogen). After 24 h, transfected cells were harvested, counted and plated at 1000 cells/5 ul in a black 384 welled small volume plate. Cells were treated with desired concentrations of compounds and incubated for 60 min at room temperature. Lysis buffer containing cAMP-d2 and cryptate conjugate were added and incubated for 1 h. HRTF ratio was measured on a microplate reader (BMG Labtech., Germany) at an excitation wavelength of 337 nm and emission wavelengths of 665 and 620 nm with an integration time of 400 μsec. Data were analyzed using Graphpad Prism (Graphpad software; San Diego Calif.) for EC50 determination.
The results are as given in Table I as % Induction@ 10 μM, Table II as % Induction@ 10 μM and EC 50 in nM

Row | Structure (SMILES) | activation at 10 µM (Table II) [%] | EC50 (Table II) [nM] | activation at 10 µM (Table I) [%] | EC50 (Table I) [nM]
1 | CCc1cnc(N2CCC(c3ccc4oc(-c5ccc(S(C)(=O)=O)cc5F)nc4c3)CC2)nc1 [EXAMPLE-62, 5-[1-(5-ethylpyrimidin-2-yl)piperidin-4-yl]-2-[2-fluoro-4-(methylsulfonyl)phenyl]benzo[d]oxazole] | 59.3 | < 500 |  | 
2 | CC(C)(C)OC(=O)N1CCC(c2ccc3oc(-c4ccc(C(F)(F)F)cc4)nc3c2)CC1 [EXAMPLE-70, Tert-butyl 4-{2-[4-(trifluoromethyl)phenyl]benzo[d]oxazol-5-yl}piperidine-1-carboxylate] | 64.7 | ≤ 25 |  | 
3 | CC(C)OC(=O)N1CCC(c2nc3cc(-c4ccc(C(F)F)cc4)ccc3o2)CC1 [EXAMPLE-29, Isopropyl 4-{5-[4-(difluoromethyl)phenyl]benzo[d]oxazol-2-yl}piperidine-1-carboxylate] |  |  | 78.6 | 25 to 50
4 | CC(C)(C)OC(=O)N1CC=C(c2ccc3oc(-c4ccc(S(C)(=O)=O)cc4F)nc3c2)CC1 [EXAMPLE-59, Tert-butyl 4-{2-[2-fluoro-4-(methylsulfonyl)phenyl]benzo[d]oxazol-5-yl}-5,6-dihydropyridine-1(2H)-carboxylate] | 63.8 |  |  | 
5 | CC(C)(C)OC(=O)N1CCC(c2nc3cc(-c4ccc(S(C)(=O)=O)cc4F)ccc3[nH]2)CC1 [EXAMPLE-2, Tert-butyl 4-{5-[2-fluoro-4-(methylsulfonyl)phenyl]-1H-benzo[d]imidazol-2-yl}piperidine-1-carboxylate] |  |  | 35.8 | 
6 | CC(C)(C)OC(=O)N1CCC(c2nc3cc(-c4ccc(C(N)=O)c(F)c4)ccc3o2)CC1 [EXAMPLE-21, Tert-butyl 4-[5-(4-carbamoyl-3-fluorophenyl)benzo[d]oxazol-2-yl]piperidine-1-carboxylate] |  |  | 59 | 50 to 100
7 | CC(C)OC(=O)N1CCC(c2ccc3oc(-c4ccc(C(F)(F)F)cc4)nc3c2)CC1 [EXAMPLE-77, Isopropyl 4-{2-[4-(trifluoromethyl)phenyl]benzo[d]oxazol-5-yl}piperidine-1-carboxylate] | 80.4 | 50 to 250 |  | 
8 | CC(C)(C)OC(=O)N1CC=C(c2ccc3sc(-c4ccc(S(C)(=O)=O)cc4F)nc3c2)CC1 [EXAMPLE-66, Tert-butyl 4-{2-[2-fluoro-4-(methylsulfonyl)phenyl]benzo[d]thiazol-5-yl}-5,6-dihydropyridine-1(2H)-carboxylate] | 18.9 |  |  | 
9 | CC(C)c1noc(C2CCN(c3ccc4oc(-c5ccc(S(C)(=O)=O)cc5F)nc4c3)CC2)n1 [EXAMPLE-83, 2-[2-fluoro-4-(methylsulfonyl)phenyl]-5-[4-(3-isopropyl-1,2,4-oxadiazol-5-yl)piperidin-1-yl]benzo[d]oxazole] | 57.6 |  |  | 
10 | CC(C)(C)OC(=O)N1CCC(c2cnc3oc(-c4ccc(C(F)(F)F)cc4)nc3c2)CC1 [EXAMPLE-87, Tert-butyl 4-{2-[4-(trifluoromethyl)phenyl]oxazolo[5,4-b]pyridin-6-yl}piperidine-1-carboxylate] | 47.3 |  |  | 
11 | CS(=O)(=O)c1ccc(-c2nc3cc(C4CCN(C(=O)OCc5ccccc5)CC4)ccc3o2)c(F)c1 [EXAMPLE-74, Benzyl 4-{2-[2-fluoro-4-(methylsulfonyl)phenyl]benzo[d]oxazol-5-yl}piperidine-1-carboxylate] | 14.7 |  |  | 
12 | CC(C)(C)OC(=O)N1CCC(c2nc3cc(-c4ccc(S(C)(=O)=O)cc4F)cc(F)c3o2)CC1 [EXAMPLE-8, Tert-butyl 4-{7-fluoro-5-[2-fluoro-4-(methylsulfonyl)phenyl]benzo[d]oxazol-2-yl}piperidine-1-carboxylate] |  |  | 66.7 | 25 to 50
13 | O=C(OC1CCC1)N1CCC(c2nc3cc(-c4ccc(-n5cnnn5)cc4F)ccc3o2)CC1 [EXAMPLE-23, Cyclobutyl 4-{5-[2-fluoro-4-(1H-tetrazol-1-yl)phenyl]benzo[d]oxazol-2-yl}piperidine-1-carboxylate] |  |  | 69.6 | 25 to 50
14 | CS(=O)(=O)c1ccc(-c2nc3cc(C4CCNCC4)ccc3o2)c(F)c1 [EXAMPLE-61, 2-[2-fluoro-4-(methylsulfonyl)phenyl]-5-(piperidin-4-yl)benzo[d]oxazole 2,2,2-trifluoroacetate] | 29.8 |  |  | 
15 | CCc1cnc(N2CCC(c3ccc4[nH]c(-c5ccc(S(C)(=O)=O)cc5F)nc4c3)CC2)nc1 [EXAMPLE-58, 5-[1-(5-ethylpyrimidin-2-yl)piperidin-4-yl]-2-[2-fluoro-4-(methylsulfonyl)phenyl]-1H-benzo[d]imidazole] | 32.2 |  |  | 
16 | CC(C)(C)OC(=O)N1CCC(c2nc3cc(-c4ccc(C#N)cc4)ccc3o2)CC1 [EXAMPLE-9, Tert-butyl 4-[5-(4-cyanophenyl)benzo[d]oxazol-2-yl]piperidine-1-carboxylate] |  |  | 46.8 | 
17 | CC(C)(C)OC(=O)N1CCC(c2nc3ccc(-c4ccc(S(C)(=O)=O)cc4F)cc3o2)CC1 [EXAMPLE-6, Tert-butyl 4-{6-[2-fluoro-4-(methylsulfonyl)phenyl]benzo[d]oxazol-2-yl}piperidine-1-carboxylate] |  |  | 73.2 | 25 to 50
18 | CC(C)OC(=O)N1CCC(c2ccc3sc(-c4ccc(S(C)(=O)=O)cc4F)nc3c2)CC1 [EXAMPLE-73] | 46 | 500 to 1000 |  | 
19 | CC(C)OC(=O)N1CCC(c2nc3cc(-c4ccc(-n5cnnn5)cc4F)ccc3o2)CC1 [EXAMPLE-14, Isopropyl 4-{5-[2-fluoro-4-(1H-tetrazol-1-yl)phenyl]benzo[d]oxazol-2-yl}piperidine-1-carboxylate] |  |  | 68.6 | 25 to 50
20 | CC(C)(C)OC(=O)N1CCC(c2ccc3sc(-c4ccc(S(C)(=O)=O)cc4F)nc3c2)CC1 [EXAMPLE-68, Tert-butyl 4-{2-[2-fluoro-4-(methylsulfonyl)phenyl]benzo[d]thiazol-5-yl}piperidine-1-carboxylate] | 72.7 |  |  | 
21 | CC(C)(C)OC(=O)N1CCC(c2nc3cc(-c4ccc(-n5cnnn5)c(F)c4)ccc3o2)CC1 [EXAMPLE-15, Tert-butyl 4-{5-[3-fluoro-4-(1H-tetrazol-1-yl)phenyl]benzo[d]oxazol-2-yl}piperidine-1-carboxylate] |  |  | 77.7 | 100 to 500
22 | CC(C)C(=O)N1CCC(c2nc3cc(-c4ccc(-n5cnnn5)cc4F)ccc3o2)CC1 [EXAMPLE-32, 1-{4-[5-(2-fluoro-4-(1H-tetrazol-1-yl)phenyl)benzo[d]oxazol-2-yl]piperidin-1-yl}-2-methylpropan-1-one] |  |  | 63.9 | 50 to 100
23 | CCc1cnc(N2CCC(c3nc4cc(-c5ccc(S(C)(=O)=O)cc5F)ccc4[nH]3)CC2)nc1 [EXAMPLE-1, 2-[1-(5-Ethylpyrimidin-2-yl)piperidin-4-yl]-5-[2-fluoro-4-(methylsulfonyl)phenyl]-1H-benzo[d]imidazole] |  |  | 55.4 | 
24 | CCCS(=O)(=O)N1CCC(c2nc3cc(-c4ccc(C(N)=O)c(F)c4)ccc3o2)CC1 [EXAMPLE-53, 2-fluoro-4-{2-[1-(propylsulfonyl)piperidin-4-yl]benzo[d]oxazol-5-yl}benzamide] |  |  | 39.9 | 
25 | CCc1cnc(N2CCC(c3nc4cc(-c5ccc(S(C)(=O)=O)cc5F)ccc4o3)CC2)nc1 [EXAMPLE-3, 2-[1-(5-ethylpyrimidin-2-yl)piperidin-4-yl]-5-[2-fluoro-4-(methylsulfonyl)phenyl]benzo[d]oxazole] |  |  | 35.4 | 
26 | CC(C)OC(=O)N1CCC(c2ccc3nc(-c4ccc(S(C)(=O)=O)cc4F)sc3c2)CC1 [EXAMPLE-76, Isopropyl 4-{2-[2-fluoro-4-(methylsulfonyl)phenyl]benzo[d]thiazol-6-yl}piperidine-1-carboxylate] | 74.9 | 50 to 250 |  | 
27 | Cc1ccc(-c2nc3ccc(C4CCN(C(=O)OC(C)C)CC4)cc3o2)cc1 [EXAMPLE-78, Isopropyl 4-(2-p-tolylbenzo[d]oxazol-6-yl)piperidine-1-carboxylate] | 59.4 |  |  | 
28 | CC(C)(C)OC(=O)N1CCC(c2nc3cc(-c4ccc(-c5nnn[nH]5)c(F)c4)ccc3o2)CC1 [EXAMPLE-19, Tert-butyl 4-{5-[3-fluoro-4-(1H-tetrazol-5-yl)phenyl]benzo[d]oxazol-2-yl}piperidine-1-carboxylate] |  |  | 37.2 | 
29 | CS(=O)(=O)c1ccc(-c2nc3cc(C4CCN(S(=O)(=O)CCCO)CC4)ccc3o2)c(F)c1 [EXAMPLE-80, 3-{4-[2-(2-fluoro-4-(methylsulfonyl)phenyl)benzo[d]oxazol-5-yl]piperidin-1-ylsulfonyl}propan-1-ol] | 26.4 |  |  | 
30 | CC(C)OC(=O)N1CCC(c2nc3cc(-c4ccc(C=O)cc4)ccc3o2)CC1 [EXAMPLE-28, Isopropyl 4-[5-(4-formylphenyl)benzo[d]oxazol-2-yl]piperidine-1-carboxylate] |  |  | 45.4 | 
